Laboratory results taken from patent US12048678B2, “Compounds for treating myelin related disorders” (Case Western Reserve University, priority 2018, dated 2024).

Columns and labels:
[1] = test system: oligodendrocyte progenitor cells (OPCs), OPC-5; test: Differentiation of OPCs to MBP+ oligodendrocytes (in vitro phenotypic screening, high-content imaging); assay type: cell-based, mouse; conditions: for activation at 0.03 µM / activation at 0.1 µM / activation at 0.3 µM / activation at 1 µM: Mus musculus, Oligodendrocyte progenitor cell, 72 h treatment; for activation at 0.03 µM: read-out: % enhancement of MBP+ oligodendrocyte generation at 0.03 μM concentration; for activation at 0.1 µM: read-out: % enhancement of MBP+ oligodendrocyte generation at 0.1 μM concentration; for activation at 0.3 µM: read-out: % enhancement of MBP+ oligodendrocyte generation at 0.3 μM concentration; for activation at 1 µM: read-out: % enhancement of MBP+ oligodendrocyte generation at 1 μM concentration; for enhancement of oligodendrocyte formation (in words): OPC-5, FIGS. 2a-2c
Experimental: To rigorously assess effects of small molecule and genetic treatments on OPCs, all treatments were assayed in two batches of epiblast stem cell-derived OPCs, and key results were confirmed using mouse primary OPCs. OPCs were generated from two separate EpiSC lines, EpiSC5 (giving rise to OPC-5 OPCs) and 12901 (giving rise to OPC-1 OPCs). EpiSC-derived OPCs were obtained using in vitro differentiation protocols and culture conditions described previously. To ensure uniformity throughout all in vitro screening experiments, EpiSC-derived OPCs were sorted to purity by fluorescence activated cell sorting at passage five with conjugated CD 140a-APC (eBioscience, 17-1401; 1:80) and NG2-AF488 (Millipore, AB5320A4; 1:100) antibodies. Sorted batches of OPCs were expanded and frozen down in aliquots. OPCs were thawed into growth conditions for one passage before use in further assays. Cultures were regularly tested and shown to be mycoplasma free.
EpiSC-derived OPCs were grown and expanded in poly-ornithine (PO) and laminin-coated flasks with growth medium (DMEM/F12 supplemented with N2-MAX (R&D Systems), B-27 (ThermoFisher), GlutaMax (Gibco), FGF2 ([…], R&D systems, 233-FB-025) and PDGF-AA ([…], R&D systems, 233-AA-050) before harvesting for plating. The cells were seeded onto poly-D-lysine 96-well CellCarrier or CellCarrierUltra plates (PerkinElmer) coated with laminin (Sigma, L2020; 15 μg/ml) using multi-channel pipet. For the experiment, 800,000 cells/mL stock in differentiation medium (DMEM/F12 supplemented with N2-MAX and B-27) was prepared and stored on ice for 2 h. Then, 40,000 cells were seeded per well in differentiation medium and allowed to attach for 30 min before addition of drug. For dose-response testing of all molecules except sterols, a 1000× compound stock in dimethyl sulphoxide (DMSO) was added to assay plates with 0.1 μL solid pin multi-blot replicators (V & P Scientific; VP 409), resulting in a final primary screening concentration of 1×. Cells were incubated under standard conditions (37° C., 5% CO2) for 3 days and fixed with 4% paraformaldehyde (PFA) in phosphate buffered saline (PBS) for 20 min. Fixed plates were washed with PBS (200 μL per well) twice, permeabilized with 0.1% Triton X-100 and blocked with 10% donkey serum (v/v) in PBS for 40 min. Then, cells were labelled with MBP antibodies (Abcam, ab7349; 1:200) for 16 h at 4° C. followed by detection with Alexa Fluor conjugated secondary antibodies (1:500) for 45 min. Nuclei were visualized by DAPI staining (Sigma; 1 μg/ml). During washing steps, PBS was added using a multi-channel pipet and aspiration was performed using Biotek EL406 washer dispenser (Biotek) equipped with a 96-well aspiration manifold.
Plates were imaged on the Operetta High Content Imaging and Analysis system (PerkinElmer) and a set of 6 fields captured from each well resulting in an average of 1200 cells being scored per well. Analysis (PerkinElmer Harmony and Columbus software) began by identifying intact nuclei stained by DAPI; that is, those traced nuclei that were larger than 300 μm2 in surface area. Each traced nucleus region was then expanded by 50% and cross-referenced with the […] (MBP) stain to identify oligodendrocyte nuclei, and from this the percentage of oligodendrocytes was calculated.

[2] = test system: cholesterol biosynthesis in OPCs (CYP51, TM7SF2, EBP); test: GC/MS-based sterol profiling in OPCs; assay type: cell-based, mouse; conditions: GC-MS
Experimental: EpiSC-derived OPCs were plated at 0.5 million cells per ml in PDL- and laminin-coated six or twelve well plate with differentiation media. After 24 hours, cells were dissociated with Accutase, rinsed with saline, and cell pellets were frozen. For sterol analyses, cells were lysed in methanol (Sigma-Aldrich) with agitation for 30 minutes and cell debris removed by centrifugation at 10,000 rpm for 15 min. Cholesterol-d7 standard (25,26,26,26,27,27,27-^2H7-cholesterol, Cambridge Isotope Laboratories) was added before drying under nitrogen stream and derivatization with 55 μl of bis(trimethylsilyl)trifluoroacetamide/trimethylchlorosilane to form trimethylsilyl derivatives. Following derivatization at 60° C. for 20 minutes, 1 μl was analyzed by gas chromatography/mass spectrometry using an Agilent 5973 Network Mass Selective Detector equipped with a 6890 gas chromatograph system and a HP-5MS capillary column ([…]). Samples were injected in splitless mode and analyzed using electron impact ionization. Ion fragment peaks were integrated to calculate sterol abundance, and quantitation was relative to cholesterol-d7. The following m/z ion fragments were used to quantitate each metabolite: cholesterol-d7 (465), FF-Mas (482), cholesterol (368), zymostenol (458), zymosterol (456), desmosterol (456, 343), 7-dehydrocholesterol (456, 325), lanosterol (393), lathosterol (458), 14-dehydrozymostenol (456). Calibration curves were generated by injecting varying concentrations of sterol standards and maintaining a fixed amount of cholesterol-D7. The human glioma cell line GBM528 was a gift of Jeremy Rich (Cleveland Clinic). Human cortical spheroids were generated as described previously.

[3] = biological target: T1, M1 muscarinic receptor (Homo sapiens, UniProt P11229); test: Muscarinic receptor antagonism assay (GeneBLAzer M1-NFAT-bla CHO-K1 cells); assay type: cell-based; conditions: Compound 1 at 1 μM, TASIN-1 100 nM; concentration maximally effective for oligodendrocyte formation
T1 sequence (P11229 1-460): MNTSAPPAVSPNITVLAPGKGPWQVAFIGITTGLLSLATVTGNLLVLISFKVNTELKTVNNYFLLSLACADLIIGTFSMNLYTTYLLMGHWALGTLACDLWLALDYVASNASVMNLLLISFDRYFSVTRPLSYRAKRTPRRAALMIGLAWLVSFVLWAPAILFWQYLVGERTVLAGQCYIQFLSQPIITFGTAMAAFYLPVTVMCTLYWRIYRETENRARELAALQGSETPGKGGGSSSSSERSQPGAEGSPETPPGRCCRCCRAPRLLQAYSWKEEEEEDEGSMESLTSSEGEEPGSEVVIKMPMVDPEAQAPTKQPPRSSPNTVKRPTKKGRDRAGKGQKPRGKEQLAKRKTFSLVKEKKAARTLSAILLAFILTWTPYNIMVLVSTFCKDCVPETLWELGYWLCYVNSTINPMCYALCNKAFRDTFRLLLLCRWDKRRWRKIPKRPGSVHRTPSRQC
Experimental: GeneBLAzer M1-NFAT-bla CHO-K1 cells (or M3- or M5-NFAT-bla CHO-K1 cells)(ThermoFisher) were thawed into Assay Media (DMEM, 10% dialyzed FBS, 25 mM HEPES pH 7.3, 0.1 mM NEAA). 10,000 cells/well were added to a 384-well TC treated assay plate and incubated 16-24 h at 37° C. 4 μl of a 10× stock of antimuscarinic molecules was added to the plate and incubated 30 min. 4 μl of 10× control agonist Carbachol at the pre-determined EC80 concentration was added to wells containing antimuscarinic molecules. The plate was incubated 5 h and 8 μl of 1 μM Substrate+Solution D Loading Solution was added to each well and the plate was incubated 2 h at room temperature before reading on a fluorescence plate reader.

[4] = biological target: T2, estrogen receptor (T47D cells) (Homo sapiens, UniProt P03372); test: Estrogen-dependent cell proliferation assay; assay type: cell-based; conditions: Compound 1 at 1 μM, TASIN-1 100 nM
T2 construct: estrogen dependent growth of T47D cells; endogenous in cells; host or cells: T47D
T2 sequence (P03372 1-595): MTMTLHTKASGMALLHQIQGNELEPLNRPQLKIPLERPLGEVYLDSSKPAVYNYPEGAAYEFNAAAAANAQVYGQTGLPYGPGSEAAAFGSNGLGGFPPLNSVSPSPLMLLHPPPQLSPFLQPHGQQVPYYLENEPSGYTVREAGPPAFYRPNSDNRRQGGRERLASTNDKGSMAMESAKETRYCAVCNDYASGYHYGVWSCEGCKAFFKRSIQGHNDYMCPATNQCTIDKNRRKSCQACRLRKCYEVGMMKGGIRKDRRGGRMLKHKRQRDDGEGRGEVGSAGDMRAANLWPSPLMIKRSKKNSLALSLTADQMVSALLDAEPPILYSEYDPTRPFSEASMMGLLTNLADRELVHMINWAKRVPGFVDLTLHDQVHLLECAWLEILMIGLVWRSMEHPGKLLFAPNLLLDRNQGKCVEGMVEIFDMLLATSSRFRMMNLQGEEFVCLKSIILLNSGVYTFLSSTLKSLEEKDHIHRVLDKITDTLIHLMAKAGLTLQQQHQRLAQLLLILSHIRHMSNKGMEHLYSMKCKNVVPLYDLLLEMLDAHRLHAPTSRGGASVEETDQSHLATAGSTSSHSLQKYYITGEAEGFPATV
Experimental: Estrogen-dependent cell proliferation was measured as previously described with minor modifications. After growth in estrogen-free media (Phenol red-free RPMI supplemented with 10% charcoal stripped fetal bovine serum) for 5 days, cells were seeded at 2,500 cells/well into 96 well plates. The following day 3× drug containing media was added to triplicate wells and cells were allowed to grow for an additional 5 days at 37° C. in standard a 5% CO2 humidified incubator. Total DNA per well was measured using an adaptation of the method of Labarca and Paigen. At this time media was removed, cells were washed one time with 0.25×PBS and 100 μl of distilled water was added. […] After incubation at room temperature for 2 hours, plates were read in a SpectraMax i3 fluorescent plate reader (Molecular Devices, Sunnyvale, CA) with excitation at 360 nm and emission at 460 nm. All values were converted to microgram DNA per well using a standard curve derived from purified salmon testes DNA.

[5] = biological target: kappa opioid receptor (Homo sapiens, UniProt P41145); test: k-Opioid receptor agonism assay (Tango  U2OS cells); assay type: cell-based; conditions: Compound 1 at 1 μM, TASIN-1 100 nM, U50488 2 μM
kappa opioid receptor, sequence (P41145 whole entry): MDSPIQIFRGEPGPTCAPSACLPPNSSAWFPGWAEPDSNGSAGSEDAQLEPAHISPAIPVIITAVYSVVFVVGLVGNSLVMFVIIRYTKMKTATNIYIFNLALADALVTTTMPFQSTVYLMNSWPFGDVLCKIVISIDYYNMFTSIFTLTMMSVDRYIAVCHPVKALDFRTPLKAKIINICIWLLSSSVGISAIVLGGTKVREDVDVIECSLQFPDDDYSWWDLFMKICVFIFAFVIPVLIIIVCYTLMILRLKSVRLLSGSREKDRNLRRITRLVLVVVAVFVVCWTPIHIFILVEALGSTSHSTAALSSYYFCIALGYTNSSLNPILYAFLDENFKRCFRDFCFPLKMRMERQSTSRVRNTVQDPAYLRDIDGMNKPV

SMILES | activation at 0.03 µM [1] | activation at 0.1 µM [1] | activation at 0.3 µM [1] | activation at 1 µM [1] | EC50 for enhancing oligodendrocyte formation ([1]; wide concentration range) | cholesterol biosynthesis in OPCs ([2]; 10 μM screening dose) | lanosterol accumulation in OPCs (indicative of CYP51 inhibition) ([2]; 10 μM) | enhancement of oligodendrocyte formation (in words) [1] | 14-dehydrozymostenol accumulation in OPCs (indicative of TM7SF2 inhibition) ([2]; 1 μM) | effect in cell-based assay for the M1 muscarinic receptor [3] | effect in cell-based assay for the estrogen receptor (estrogen dependent growth of T47D cells) [4] | effect in cell-based assay for the kappa opioid receptor [5]
Clc1ccc(CN2CCCCCC2)cc1Cl [Compound 15] | ≤ 20% | 20 to 30% | 30 to 40% | 30 to 40% | – | – | – | – | – | – | – | –
Clc1ccc(CN2CCN(Cc3ccccc3)CC2)cc1Cl [Compound 5] | ≤ 20% | 20 to 30% | 30 to 40% | 30 to 40% | – | – | – | – | – | – | – | –
CC(C)C(=O)NC(Cc1ccc(OCc2ccccc2)cc1)C(=O)NCCCN(C)c1ccccc1 (stereo not drawn) [Compound 19] | 20 to 30% | 20 to 30% | 30 to 40% | 30 to 40% | mid-nanomolar range | inhibition of cholesterol biosynthesis | accumulation of the 8,9-unsaturated sterol lanosterol | – | – | – | – | –
c1ccc(-c2ccc(CNCCc3ccc(CN4CCCCC4)cc3)cc2)cc1 [Compound 18] | 20 to 30% | 20 to 30% | 20 to 30% | 30 to 40% | – | – | – | – | – | – | – | –
CN(C(=O)c1ccc(-c2ccccc2)cc1)[C@@H]1Cc2ccc(CN3CCCCC3CO)cc2C1 (stereo partly drawn) [Compound 10] | 20 to 30% | 30 to 40% | > 40% | > 40% | – | – | – | strongly promoted oligodendrocyte formation | accumulated 14-dehydrozymostenol | – | – | –
OCC1CCCN(Cc2ccc(-c3ccccc3)cc2)C1 (stereo not drawn) [Compound 9] | 20 to 30% | 20 to 30% | 30 to 40% | 30 to 40% | – | – | – | – | – | – | – | –
Clc1ccc(CN2CCCCCCC2)cc1Cl [Compound 17] | ≤ 20% | ≤ 20% | ≤ 20% | ≤ 20% | – | – | – | – | – | – | – | –
c1ccc(-c2ccc(CN3CCSCC3)cc2)cc1 [Compound 7] | ≤ 20% | 30 to 40% | 20 to 30% | 30 to 40% | – | – | – | – | – | – | – | –
CCCCOc1ccc(CN2CCCCC2CC)cc1 (stereo not drawn) [Compound 4] | ≤ 20% | 20 to 30% | ≤ 20% | 20 to 30% | – | – | – | – | – | – | – | –
CCN1CCN(Cc2ccc(-c3ccccc3)cc2)CC1 [Compound 2] | 20 to 30% | 30 to 40% | > 40% | > 40% | – | – | – | – | – | – | – | –
CN1CCN(Cc2ccc(-c3ccccc3)cc2)CC1 [Compound 6] | ≤ 20% | 20 to 30% | 30 to 40% | 30 to 40% | – | – | – | – | – | – | – | –
NC(=O)C1CCN(Cc2ccc(-c3ccccc3)cc2)CC1 [Compound 13] | 20 to 30% | 20 to 30% | 30 to 40% | > 40% | – | – | – | – | – | – | – | –
OC1CCN(Cc2ccc(-c3ccccc3)cc2)CC1 [Compound 16] | 20 to 30% | 20 to 30% | 20 to 30% | 30 to 40% | – | – | – | – | – | – | – | –
OCC1CCCCN1Cc1ccc(Cl)c(Cl)c1 (stereo not drawn) [Compound 11] | 20 to 30% | 30 to 40% | > 40% | > 40% | – | – | – | strongly promoted oligodendrocyte formation | – | – | – | –
OC1CCCN(Cc2ccc(-c3ccccc3)cc2)C1 (stereo not drawn) [Compound 8] | 20 to 30% | 20 to 30% | 30 to 40% | 30 to 40% | – | – | – | – | – | – | – | –
CSc1ccc(CN2CCCCC2CO)cc1 (stereo not drawn) [Compound 14] | 20 to 30% | 30 to 40% | 30 to 40% | 30 to 40% | – | – | – | – | – | – | – | –
c1ccc(-c2ccc(CN3CCCCCC3)cc2)cc1 [Compound 3] | 20 to 30% | 20 to 30% | 30 to 40% | > 40% | – | – | – | – | – | – | – | –
OCCN1CCN(Cc2ccc(-c3ccccc3)cc2)CC1 [Compound 12] | ≤ 20% | 20 to 30% | 30 to 40% | > 40% | – | – | – | – | – | – | – | –
COc1ccc(S(=O)(=O)N2CCC(N3CCC(C)CC3)CC2)cc1 [TASINI, TASIN-1, reference compound] | – | – | – | – | – | – | – | – | – | little affinity | little affinity | little affinity
